Laboratory results reported in the NIST ThermoML archive (doi:10.1016/j.jct.2013.11.028).
± gives the expanded uncertainty stated by the source.

What was measured:
[1] = refractive index (Na D-line) (dimensionless); settings: 298.2 K; 101.33 kPa; Liquid; Standard Abbe refractometry
[2] = 298.2 K; 101.33 kPa; Liquid; Vibrating tube method

Row | refractive index [1] | mass density [2] [kg/m3] | Compound
1 | 1.4085 ± 0.0008 | 809.05 ± 0.4 | CC(C)CCO [3-methylbutan-1-ol]
2 | 1.3977 ± 0.0008 | 952.68 ± 0.23 | CCCC(=O)O [butanoic acid]
3 | 1.4073 ± 0.0008 | 810.92 ± 0.24 | CCCCCO [pentan-1-ol]
4 | 1.3325 ± 0.0008 |  | O [water]

Row | Compound | refractive index [1] | mass density [2] [kg/m3]
5 | CCCCO [butan-1-ol] | 1.3968 ± 0.0008 | 805.6 ± 0.24
